# According to patent US20050215548A1 (Cyclacel Limited, priority 2002, published 2005):
# Read-outs that look alike come from different tables or passages of the source. Marks after values point to notes of the source that are not given here. Non-standard residues stand in square brackets, D forms with d. Residues, ends and D or L forms follow the SMILES beside them. Trp(6-Cl) = N[C@@H](Cc1c[nH]c2cc(Cl)ccc12)C(=O)O; Pmp = N[C@@H](Cc1ccc(CP(=O)(O)O)cc1)C(=O)O; Ac3c = NC1(C(=O)O)CC1; Aib = CC(C)(N)C(=O)O
# Experiments:
# HDM2 = target: T1, HDM2 (Homo sapiens, UniProt Q00987); test: Fluorescence polarisation competitive HDM2 binding assay
# T1 construct: Recombinant HDM2 (1.5 μg per well) in TBS-BSA buffer
# T1 sequence (Q00987 whole entry): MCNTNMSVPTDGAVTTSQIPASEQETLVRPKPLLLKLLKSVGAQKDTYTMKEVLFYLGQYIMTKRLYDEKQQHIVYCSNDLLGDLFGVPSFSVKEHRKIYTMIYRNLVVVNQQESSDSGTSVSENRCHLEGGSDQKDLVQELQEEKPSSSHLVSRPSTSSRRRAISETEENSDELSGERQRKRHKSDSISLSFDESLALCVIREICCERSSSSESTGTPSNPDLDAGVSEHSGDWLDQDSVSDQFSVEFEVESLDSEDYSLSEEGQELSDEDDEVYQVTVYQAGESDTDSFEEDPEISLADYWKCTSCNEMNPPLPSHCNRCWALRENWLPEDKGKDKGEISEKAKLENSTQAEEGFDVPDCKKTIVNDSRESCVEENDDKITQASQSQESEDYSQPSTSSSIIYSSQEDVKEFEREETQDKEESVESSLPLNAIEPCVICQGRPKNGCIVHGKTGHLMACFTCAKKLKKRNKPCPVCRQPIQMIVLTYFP
# Method: This was carried out using a 96-well microtiter plate (Costar) format. Recombinant HDM2 (1.5 μg per well) in TBS-BSA buffer (50 mM Tris pH 7.4, 150 mM NaCl, and 0.1% BSA) was incubated for 5 min at room temperature in the presence of serially diluted test compound (in TBS-BSA buffer with a final concentration of 5% DMSO). Fluorescently labelled p53-derived peptide (fluorescein-[…]NH2, 0.2 μM) was added to each well and the plate was incubated at room temperature for 45 min. The fluorescence polarisation (excitation 485 nm, emission 520 nm) of the peptide was measured. IC50 values were calculated from dose-response curves.
# (§1) The fluorescence polarisation competitive HDM2 binding assay described in Example 3 was used. Furthermore, the anti-proliferative potency of the compounds against three human tumour cell lines with different genetic make-up was also determined. […] The cell lines used were as follows: AGS, gastric adenocarcinoma, wild-type p53; H1299, large cell lung carcinoma, p53 null, low HDM2; SJSA-1, primitive multipotential bone sarcoma, wild-type p53, overexpressed HDM2.
# p53 = p53 reporter gene assay (U2OS-derived luciferase reporter cell line); conditions: for Fold induction of luciferase activity: compared to basal luciferase activity, 16-h time point, at concentration of maximal induction; for Concentration (test compound concentration at which the p53 induction was maximal): p53 reporter, U2OS-derived cell line
# Method: A dual assay assessing both cell viability and p53 response was employed. A U2OS-derived cell line stably transfected with a p53 response element and a luciferase reporter gene was created. […] After seeding of cells into 96-well tissue culture plates, treatment with test compounds, and incubation for the desired duration, the cell proliferation reagent WST-1 (Roche Molecular Biochemicals) was used to determine cell viability. The Bright-Glo™ Luciferase Assay System (Promega) was used to measure luciferase activity. The data from the cell viability assay was used to normalise data from the luciferase assay.
# H1299 = test: 72-h MTT cytotoxicity assay, H1299; format: cell-based; conditions: Homo sapiens, NCI-H1299; 72-h MTT; Table 1; read-out: IC50 Anti-proliferative effect on cell line H 1299
# Method: as §1
# (§2) Representative bisarylsulfonamide compounds were tested on a panel of transformed and non-transformed human cell lines, using a standard 72-h MTT cytotoxicity assay [Haselsberger K et al, ibid].
# SJSA-1 = test: 72-h MTT cytotoxicity assay, SJSA-1; format: cell-based; conditions: Homo sapiens, SJSA-1; 72-h MTT; Table 1; read-out: IC50 Anti-proliferative effect on cell line SJSA-1
# Method: as §1, §2
# AGS = test: 72-h MTT cytotoxicity assay, AGS; format: cell-based; conditions: Homo sapiens, 72-h MTT, Table 1, read-out: IC50 Anti-proliferative effect on cell line AGS
# Method: as §1, §2
# [1] = fluorescence polarisation assay, Table 3, read-out: In vitro competitive HDM2 binding assay IC50
# [2] = fluorescence polarisation format, Table 1, read-out: IC50 In vitro competitive HDM2 binding assay
Compound,IC50 (HDM2; [1]),IC50 (HDM2; [2]),Fold induction of luciferase activity (p53),Concentration (test compound concentration at which the p53 induction was maximal) (p53),IC50 (H1299),IC50 (SJSA-1),IC50 (AGS),"IC50 (HDM2; In vitro competitive HDM2 binding assay IC50, fluorescence polarisation assay, Table 3)"
"O=S(=O)(Nc1ccc(C(F)(F)F)cc1)c1cc(S(=O)(=O)Nc2ccc(C(F)(F)F)cc2)c(Cl)s1 [Compound 33, 5-Chlorothiophene-2,4-disulfonic acid bis-[(4-trifluoro-methyl-phenyl)-amide]]",,65 ± 5 µM,,,69 ± 1 µM,> 100 µM,68 ± 1 µM,
"O=[N+]([O-])c1cc(S(=O)(=O)Nc2ccc(C(F)(F)F)cc2)ccc1Cl [Compound 35, 4-Chloro-3-nitro-N-(4-trifluoromethylphenyl)benzenesulfonamide]",,192 ± 8 µM,,,9.3 ± 1.7 µM,26.5 ± 1.6 µM,13 ± 3.3 µM,
"CN(c1ccc(C(F)(F)F)cc1)S(=O)(=O)c1cc([N+](=O)[O-])c(Cl)s1 [Compound 50, 5-Chloro-4-nitrothiophene-2-sulfonic acid methyl-(4-trifluoromethylphenyl)amide]",7.3 ± 0.6 µM,7.3 ± 0.6 µM,21 fold,39 µM,34.7 ± 6.1 µM,35.4 ± 11.5 µM,30.3 ± 0.3 µM,
"CN(c1ccc(Cl)cc1)S(=O)(=O)c1cc([N+](=O)[O-])c(Cl)s1 [Compound 51, 5-Chloro-4-nitrothiophene-2-sulfonic acid (4-chloro-phenyl)-methylamide]",,5.9 ± 0.7 µM,,,17.4 ± 3.8 µM,15.6 µM,11.3 ± 1 µM,
"CN(Cc1ccc(C(F)(F)F)cc1)S(=O)(=O)c1cc([N+](=O)[O-])c(Cl)s1 [Compound 52, 5-Chloro-4-nitrothiophene-2-sulfonic acid methyl-(4-trifluoromethylbenzyl)amide]",,10.7 ± 0.2 µM,,,28.5 ± 1.9 µM,27.5 ± 1.3 µM,23.3 ± 1.4 µM,
"O=[N+]([O-])c1cc(S(=O)(=O)NCc2ccc(Cl)cc2)sc1Cl [Compound 56, 5-Chloro-4-nitro-thiophene-2-sulfonic acid 4-chloro-benzylamide]",,24.8 ± 5.4 µM,,,6.3 ± 1.9 µM,9.3 ± 2.7 µM,4.3 ± 0.6 µM,
"O=[N+]([O-])c1cc(S(=O)(=O)N(Cc2cccc(C(F)(F)F)c2)c2ccc(Cl)cc2)sc1Cl [Compound 67, 5-Chloro-4-nitro-thiophene-2-sulfonic acid (4-chloro-phenyl)-(3-trifluoromethyl-benzyl)-amide]",,8.5 ± 3.2 µM,,,12 ± 1 µM,11.8 ± 1.6 µM,6.7 ± 0.9 µM,
"CC(=O)Sc1sc(S(=O)(=O)Nc2ccc(Cl)cc2)cc1[N+](=O)[O-] [Compound 72, Thioacetic acid S-[5-(4-chloro-phenylsulfamoyl)-3-nitro-thiophen-2-yl] ester]",,16.2 µM,,,,,61 µM,
"O=[N+]([O-])c1ccc(NS(=O)(=O)c2cc(C(F)(F)F)cc(C(F)(F)F)c2)cc1Cl [Compound 105, N-(3-Chloro-4-nitro-phenyl)-3,5-bis-trifluoromethyl-benzenesulfonamide]",,153 ± 18 µM,,,25 ± 1 µM,37 ± 18 µM,24 ± 3 µM,
"COc1ccc(NS(=O)(=O)c2cc([N+](=O)[O-])c(Cl)s2)c(C)c1 [Compound 129, 5-Chloro-4-nitro-thiophene-2-sulfonic acid (4-methoxy-2-methyl-phenyl)-amide]",278 ± 19 µM,278 ± 19 µM,5 fold,100 µM,,,,
"O=[N+]([O-])c1ccc(NS(=O)(=O)c2cc([N+](=O)[O-])c(Cl)s2)cc1 [Compound 131, 5-Chloro-4-nitro-thiophene-2-sulfonic acid (4-nitro-phenyl)-amide]",,41 ± 4 µM,,,,,,
"CSCC[C@H](NC(=O)[C@@H](N)Cc1ccccc1)C(=O)NC(C)(C)C(=O)N[C@@H](Cc1ccc(CP(=O)(O)O)cc1)C(=O)N[C@@H](Cc1c[nH]c2cc(Cl)ccc12)C(=O)N[C@@H](CCC(=O)O)C(=O)NC1(C(=O)N[C@@H](CC(C)C)C(N)=O)CC1 [Control, H-Phe-Met-Aib-Pmp-(6-Cl-Trp)-Glu-Ac3c-Leu-NH2, reference compound] (H-FM[Aib][Pmp][Trp(6-Cl)]E[Ac3c]L-NH2)",,,4 fold,150 to 200 µM,,,,0.19 µM

# Further lines, with some results ahead:
IC50 (HDM2; [1]),IC50 (HDM2; [2]),Fold induction of luciferase activity (p53),Compound,Concentration (test compound concentration at which the p53 induction was maximal) (p53),IC50 (H1299),IC50 (SJSA-1),IC50 (AGS),"IC50 (HDM2; In vitro competitive HDM2 binding assay IC50, fluorescence polarisation assay, Table 3)"
378 µM,378 µM,<2 fold,"O=S(=O)(Nc1ccc(F)cc1)c1cc(Br)c(Cl)s1 [Compound 4, 4-Bromo-5-chlorothiophene-2-sulfonic acid (4-fluorophenyl)amide]",100^e μM,,,,
231 ± 13 µM,232 ± 13 µM,4 fold,"O=[N+]([O-])c1cc(S(=O)(=O)Nc2ccc(Cl)cc2)ccc1Cl [Compound 38, 4-Chloro-N-(4-chlorophenyl)-3-nitro-benzenesulfonamide]",13 µM,11 ± 4 µM,22 ± 4 µM,16 ± 4 µM,
,278 ± 50 µM,,"O=S(=O)(Nc1cc(C(F)(F)F)cc(C(F)(F)F)c1)c1cnc(Cl)c(Br)c1 [Compound 42, 5-Bromo-6-chloropyridine-3-sulfonic acid (3,5-bis-trifluoromethylphenyl)amide]",,32 ± 7 µM,65 ± 18 µM,30 ± 7 µM,
,133 ± 11 µM,,"Cn1ncc(-c2ccc(S(=O)(=O)Nc3cc(C(F)(F)F)cc(C(F)(F)F)c3)s2)c1C(F)(F)F [Compound 43, 5-(1-Methyl-5-trifluoromethyl-1H-pyrazol-4-yl)-thiophene-2-sulfonic acid (3,5-bis-trifluoromethylphenyl)amide]",,18 ± 0.8 µM,33.7 ± 0.3 µM,20.9 ± 1 µM,
,25.4 ± 0.2 µM,,"O=[N+]([O-])c1cc(S(=O)(=O)Nc2cc(C(F)(F)F)cc(C(F)(F)F)c2)sc1Cl [Compound 44, 5-Chloro-4-nitrothiophene-2-sulfonic acid (3,5-bis-trifluoromethyl-phenyl)-amide]",,14 ± 2 µM,19 ± 3 µM,10 µM,
16 ± 3.7 µM,16 ± 3.7 µM,67 fold,"O=[N+]([O-])c1cc(S(=O)(=O)NCc2ccc(F)cc2)sc1Cl [Compound 45, 5-Chloro-4-nitrothiophene-2-sulfonic acid 4-fluorobenzylamide]",15 µM,11.1 ± 3.1 µM,11.5 ± 3 µM,7.5 ± 4.4 µM,
,234 ± 37 µM,,"O=[N+]([O-])c1cc(S(=O)(=O)Nc2cc(Cl)cc(Cl)c2)ccc1Cl [Compound 47, 4-Chloro-N-(3,5-dichlorophenyl)-3-nitro-benzenesulfonamide]",,18 ± 8 µM,37 ± 6 µM,23 ± 2 µM,
,> 167 µM,,"Cc1sc(S(=O)(=O)Nc2ccc(Cl)cc2)cc1[N+](=O)[O-] [Compound 73, 5-Methyl-4-nitro-thiophene-2-sulfonic acid (4-chloro-phenyl)-amide]",,66 µM,,53 µM,
,3.5 ± 10 µM,,"O=[N+]([O-])c1cc(S(=O)(=O)N(Cc2ccc(C(F)(F)F)cc2)Cc2cccc(C(F)(F)F)c2)sc1Cl [Compound 75, 5-Chloro-4-nitro-thiophene-2-sulfonic acid (3-trifluoro-methyl-benzyl)-(4-trifluoromethyl-benzyl)-amide]",,16 µM,18 µM,9 µM,
,311 ± 21 µM,,"O=[N+]([O-])c1cc(S(=O)(=O)NCCc2c[nH]c3ccc(Cl)cc23)ccc1Cl [Compound 81, 4-Chloro-N-[2-(5-chloro-1H-indol-3-yl)-ethyl]-3-nitro-benzenesulfonamide]",,39 ± 6 µM,51 ± 1 µM,29 ± 2 µM,
,338 ± 111 µM,,"Cc1ccc(S(=O)(=O)NCCc2c[nH]c3ccc(Cl)cc23)cc1[N+](=O)[O-] [Compound 82, N-[2-(5-Chloro-1H-indol-3-yl)-ethyl]-4-methyl-3-nitro-benzenesulfonamide]",,49 µM,65 ± 4 µM,50 µM,
,151 ± 26 µM,,"COc1ccc(S(=O)(=O)Nc2cc(C(F)(F)F)cc(C(F)(F)F)c2)cc1Cl [Compound 104, N-(3,5-Bis-trifluoromethyl-phenyl)-3-chloro-4-methoxy-benzene-sulfonamide]",,,,25 µM,
,134 ± 28 µM,,"O=S(=O)(Nc1cc(C(F)(F)F)cc(C(F)(F)F)c1)c1c(Cl)cccc1Cl [Compound 128, N-(3,5-Bis-trifluoromethyl-phenyl)-2,6-dichloro-benzenesulfonamide]",,,,53 µM,
